Converted amounts (≈) assume the structure as drawn. “Also recorded” adds a separate entry of the source. Counter-ions that a name gives are not always drawn.
Assays:
[1] = system: IL23; conditions: as tested in PCT/CN2021/140271; read-out: HEK blue IL23 IC50; cited from earlier work
[2] = Dynamic vapor sorption (DVS) analysis; format: physicochemical; conditions: for hygroscopic weight gain / water uptake (DVS): at 90% RH
Protocol: Dynamic Vapor Sorption (DVS) Analysis: Moisture sorption/desorption data was collected on a DVS Intrinsic PLUS (SMS, UK). The sample was placed into a tared sample chamber and automatically weighed. The sample was dried at 40° C. until the dm/dt was less than 0.002% and cooled to 25° C.

[3] = Solubility in bio-relevant media (FaSSIF, FeSSIF, SGF); format: physicochemical
From the text: (§1) High Performance Liquid Chromatography (HPLC): a representative HPLC method is shown below, which can be used, for example, to analyze the purity, solubility, and stability of Compound 1 herein.

[4] = Solid stability; format: physicochemical
From the text: as §1

[5] = Inter-conversion study among identified anhydrates in organic solvents; format: physicochemical; conditions: different organic solvents, RT to 60° C.
Protocol: Inter-conversion study among identified anhydrates (Form I, Form II, Form III, Form IV, Form V, Form VIII, Form X, Form XIII, Form XIV, Form XV) was conducted in different organic solvents between RT to 60° C.

[6] = Slurry bridging studies among Form I, Form III and Form VI under different water activities; format: physicochemical; conditions: versus Form I and Form VI
[7] = Simulated Gastric Fluid (SGF), simulated gastric fluid, thermodynamic from solid, SGF
[8] = thermodynamic from solid, FaSSIF
[9] = thermodynamic from solid, FeSSIF

In the case of `[2H]C([2H])([2H])NC(=O)c1nnc(NC(=O)C2CC2)cc1Nc1ncc(Cl)cc1S(C)(=O)=O` [Compound 1], the IC50 [1] is given as 2.5 nM.
With `[2H]C([2H])([2H])NC(=O)c1nnc(NC(=O)C2CC2)cc1Nc1ncc(Cl)cc1S(C)(=O)=O` [Form III] the DVS reversibility [2] was “Reversible”, the “DVS Wt. gain %” value ([2]; 0-80% RH) was 0.09%, 0-80% RH and the “DVS Wt. gain %” value ([2]; 80-90% RH) was 0.03%, 80-90% RH. The “hygroscopic weight gain / water uptake (DVS)” value [2] was 0.13%, the “Solubility (in words)” value [3] was “low and pH-dependent with higher solubility observed in Simulated Gastric Fluid (SGF)” and the solubility at 0.5 h [3, 7] was 7.3 µg/mL (≈ 17.1 µM). It also gave a solubility at 2 h [3, 7] of 8.2 µg/mL (≈ 19.2 µM), a solubility at 24 h [3, 7] of 5.7 µg/mL (≈ 13.3 µM) and a solubility at 0.5 h [3, 8] of 1.1 µg/mL (≈ 2.57 µM). The solubility at 2 h [3, 8] was 1.1 µg/mL (≈ 2.57 µM), the solubility at 24 h [3, 8] was 1.3 µg/mL (≈ 3.04 µM) and the solubility at 0.5 h [3, 9] was 2.6 µg/mL (≈ 6.08 µM). The solubility at 2 h [3, 9] was 3.4 µg/mL (≈ 7.95 µM), the solubility at 24 h [3, 9] was 4.1 µg/mL (≈ 9.58 µM) and the Solid stability ([4]; 40° C./75% RH for 7 d) was “physically and chemically stable; also recorded: Chemically and physically stable”. For the same compound, the Solid stability ([4]; 60° C. for 7 d) was “physically and chemically stable; also recorded: Chemically and physically stable”, the Solid stability ([4]; 92.5% RH for 10 d) was “crystal form remained unchanged; also recorded: Physically stable” and the “relative stability among anhydrate forms” value [5] was “most stable anhydrate form”. For the same compound, the “water activity up to which the form is more stable” value ([6]; 25° C.) was “not more than 0.56” and the “water activity up to which the form is more stable” value ([6]; 50° C.) was ≤ 0.83.
For `[2H]C([2H])([2H])NC(=O)c1nnc(NC(=O)C2CC2)cc1Nc1ncc(Cl)cc1S(C)(=O)=O` [choline salt Form K], the “hygroscopic weight gain / water uptake (DVS)” value [2] was “about 23%”.
For `[2H]C([2H])([2H])NC(=O)c1nnc(NC(=O)C2CC2)cc1Nc1ncc(Cl)cc1S(C)(=O)=O` [phosphate Form E], the “hygroscopic weight gain / water uptake (DVS)” value [2] was “about 0.92%”.
With `[2H]C([2H])([2H])NC(=O)c1nnc(NC(=O)C2CC2)cc1Nc1ncc(Cl)cc1S(C)(=O)=O` [sulfate Form A] the “hygroscopic weight gain / water uptake (DVS)” value [2] was “about 10%”.
With `[2H]C([2H])([2H])NC(=O)c1nnc(NC(=O)C2CC2)cc1Nc1ncc(Cl)cc1S(C)(=O)=O` [sulfate Form B] the “hygroscopic weight gain / water uptake (DVS)” value [2] was “about 1.0%” and the solubility ([3]; bio-relevant media (FaSSIF, FeSSIF, SGF), fassgf or other biorelevant, thermodynamic from solid) was < 20 µg/mL.

— patent publication US12655123B2, “Heteroaryl compounds, solid forms, preparation methods and uses thereof” (InventisBio Co., Ltd., priority 2022, dated 2026)
